In assay [1] the test system is M. tuberculosis H37Rv (ATCC 25618 Wild-type). As to the kind of experiment: microbe, parasite or virus in culture. The assay is classed as cell-based.
In assay [2] the test system is M. tuberculosis HN-878 (wild-type). Kind of assay: microbe, parasite or virus in culture. Type of assay: cell-based.
The next assay concerns S. aureus NCTC 12493. Kind of assay: in vitro antistaphylococcal activity, broth microdilution method (MIC/MBC). Type of assay: cell-based, Staphylococcus aureus. The settings on record: for MIC / MBC: Staphylococcus aureus; for MIC: NCTC12493, lowest concentration inhibiting visible growth; for MBC: NCTC12493, lowest concentration reducing viability of inoculum by ≥99.9%, 24 h at 37° C.

[3] abbreviates: Mycobacterium tuberculosis, 120 h; read-out: Mycobacterium tuberculosis strain MIC90, H37Rv.
Where [4] appears, read: Mycobacterium tuberculosis, 120 h; read-out: Mycobacterium tuberculosis strain MIC90, HN-878.

Each structure is given as a SMILES string. Converted amounts (≈) assume the structure as drawn. Read-outs that look alike come from different tables or passages of the source.

Results on 6 molecules are retold here after patent US20250241914A1, “BIFUNCTIONAL PHARMACEUTICAL COMPOUNDS” (DE MONTFORT UNIVERSITY, priority 2024, published 2025).

For orientation: MIC means the lowest concentration that inhibits growth of the organism. A higher MIC goes with a need for much substance. By MBC is commonly meant the smallest concentration meeting the test's criterion for killing. A lower MBC goes with greater bactericidal potency. Take `CO[C@H]1/C=C/O[C@@]2(C)Oc3c(C)c(O)c4c(O)c(c(CNCCCn5cc(CCn6cc(F)c(=O)[nH]c6=O)nn5)c(O)c4c3C2=O)NC(=O)/C(C)=C\C=C\[C@H](C)[C@H](C)[C@@H](C)[C@@H](O)[C@@H](C)[C@H](OC(C)=O)[C@@H]1C` [Compound 3A]: the MIC90 in assay [1] (setting [3]) turned out to be 0.0039 µM (≈ 0.00386 µg/mL). In addition, the MIC90 in assay [2] (setting [4]) was found to be 0.059 ± 0.01 µM (≈ 0.0584 µg/mL). Further, in the assay with S. aureus NCTC 12493, the “MBC value relative to MIC value” was “the same”, inhibition of growth (MIC) required 1 µg/mL (≈ 1.01 µM) and the MBC came to 1 µg/mL (≈ 1.01 µM).
`NNC(=O)c1ccncc1` [Isoniazid, reference compound]: the MIC90 in assay [1] (setting [3]) was found to be 0.28 µM (≈ 0.0384 µg/mL); in assay [2] (setting [4]), 0.29 µM (≈ 0.0398 µg/mL).
With `O=c1[nH]cc(F)c(=O)[nH]1` [Compound 5-FU, 5-Fluorouracil, reference compound], in the assay on S. aureus NCTC 12493, the “MBC value relative to MIC value” is recorded as 8 times, the MIC is 2 µg/mL (≈ 15.4 µM) and the MBC came out at 16 µg/mL (≈ 123 µM).
As for `CO[C@H]1/C=C/O[C@@]2(C)Oc3c(C)c(O)c4c(O)c(c(/C=N/N5CCN(C)CC5)c(O)c4c3C2=O)NC(=O)/C(C)=C\C=C\[C@H](C)[C@H](O)[C@@H](C)[C@@H](O)[C@@H](C)[C@H](OC(C)=O)[C@@H]1C` [Rifampicin, reference compound], in assay [1] (Mycobacterium tuberculosis, 120 h, read-out: Mycobacterium tuberculosis strain MIC90, H37Rv), the MIC90 came to 0.0045 µM (≈ 0.0037 µg/mL). Further, the MIC90 in assay [2] (Mycobacterium tuberculosis, 120 h, read-out: Mycobacterium tuberculosis strain MIC90, HN-878) is 0.02 µM (≈ 0.0165 µg/mL). Also, in the assay with S. aureus NCTC 12493, the “MBC value relative to MIC value” is 16 times, the MIC was determined as 0.25 µg/mL (≈ 0.304 µM) and the MBC amounted to 4 µg/mL (≈ 4.86 µM).
`CO[C@H]1/C=C/O[C@@]2(C)Oc3c(C)c(O)c4c(O)c(c(CNCCOCCOCCOCn5cc(CCCn6cc(F)c(=O)[nH]c6=O)nn5)c(O)c4c3C2=O)NC(=O)/C(C)=C\C=C\[C@H](C)[C@H](C)[C@@H](C)[C@@H](O)[C@@H](C)[C@H](OC(C)=O)[C@@H]1C` [Compound 3C]: the MIC90 stood at 0.0034 µM (≈ 0.00377 µg/mL) in assay [1] (setting [3]) and 0.07 ± 0.042 µM (≈ 0.0776 µg/mL) in assay [2] (setting [4]).
Consider `CO[C@H]1/C=C/O[C@@]2(C)Oc3c(C)c(O)c4c(O)c(c(CNCCOCCOCCOCn5cc(CCn6cc(F)c(=O)[nH]c6=O)nn5)c(O)c4c3C2=O)NC(=O)/C(C)=C\C=C\[C@H](C)[C@H](C)[C@@H](C)[C@@H](O)[C@@H](C)[C@H](OC(C)=O)[C@@H]1C` [Compound 3B], for which the MIC90 in assay [1] (setting [3]) is 0.0039 µM (≈ 0.00427 µg/mL). Also, the MIC90 in assay [2] (setting [4]) was 0.096 ± 0.064 µM (≈ 0.105 µg/mL). Further, in the assay with S. aureus NCTC 12493, the “MBC value relative to MIC value” is listed as “the same”, the MIC was 2 µg/mL (≈ 1.83 µM) and the MBC was 2 µg/mL (≈ 1.83 µM).
